Legend:
[1] = target: BTK (Homo sapiens (Human), UniProt Q06187); experiment: BTK degradation in OCI-LY10 cells (Total-BTK HTRF kit); format: cell-based; conditions: OCI-Ly10, OCI-LY10 cells, 24 (or 6) h incubation; maximum degradation rate
Outline: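 OCI-LY10 cells seeded overnight, then treated with compound at 100 nM-0.098 nM in duplicate for 24 (or 6) h. Lysates probed by Total-BTK HTRF (d2/Eu cryptate antibodies, overnight, room temperature), read at 665/620 nm; DC50 and Dmax from four-parameter dose-response fits.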

[2] = target: BTK(WT) kinase (Homo sapiens (Human), UniProt Q06187); experiment: Inhibitory activity on BTK(WT) kinase; format: biochemical; conditions: ATP 10 μM
Chain of BTK(WT) kinase (Q06187 whole entry): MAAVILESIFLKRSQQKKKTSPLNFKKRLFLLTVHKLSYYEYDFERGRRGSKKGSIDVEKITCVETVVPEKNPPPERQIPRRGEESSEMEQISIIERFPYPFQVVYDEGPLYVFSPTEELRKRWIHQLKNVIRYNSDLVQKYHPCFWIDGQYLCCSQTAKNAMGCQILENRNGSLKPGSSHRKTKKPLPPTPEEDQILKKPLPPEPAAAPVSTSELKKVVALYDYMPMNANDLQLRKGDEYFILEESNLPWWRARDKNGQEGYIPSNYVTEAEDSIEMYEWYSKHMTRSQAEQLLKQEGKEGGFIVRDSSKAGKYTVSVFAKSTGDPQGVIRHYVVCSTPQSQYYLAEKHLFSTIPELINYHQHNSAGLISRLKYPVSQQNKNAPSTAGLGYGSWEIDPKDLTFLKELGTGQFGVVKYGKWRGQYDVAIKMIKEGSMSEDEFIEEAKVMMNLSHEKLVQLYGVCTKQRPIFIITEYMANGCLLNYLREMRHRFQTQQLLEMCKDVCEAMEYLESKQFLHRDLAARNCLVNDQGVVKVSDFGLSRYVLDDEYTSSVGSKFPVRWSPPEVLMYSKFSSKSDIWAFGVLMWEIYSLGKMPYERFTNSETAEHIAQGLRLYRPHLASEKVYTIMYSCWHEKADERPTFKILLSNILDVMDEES
Experimental: The Assay Buffer was prepared, and the composition of the Assay Buffer was 50 mM Hepes (Gibco, 15630), 10 mM MgCl2, 2 mM DTT, 1 mM EGTA, and 0.010% Tween 20. BTK(WT) kinase (Life, PR5442A), ATP (Sigma, A7699), and ULight-poly GT (PE, TRF0100-M) working solutions were prepared using the Assay Buffer. EDTA and Eu-labeled anti-phosphotyrosine (PT66) antibody (PE, AD0069) working solutions were prepared using the Detection Buffer (PE, CR97-100). 6 μL of BTK(WT) kinase at the corresponding concentration (final concentration: 0.003 ng/L) was added to the compound groups and the control group, while 6 μL of the Assay Buffer was added to the blank group, and then the compounds (with the concentration set to 1000 nM at the maximum, 4-fold dilution, 7 concentration gradients) were each added using a nanoliter pipettor. The mixture was incubated at room temperature for 30 min, and then 4 μL of the mixture of ATP (final concentration: 10 μM) and ULight-poly GT (final concentration: 100 nM) was added. After incubation at room temperature for 2 h, 5 μL of EDTA (final concentration: 10 mM) was added to stop the reaction, and finally 5 μL of antibody (final concentration: 2 nM) was added. After incubation at room temperature for 1 h, signal values were detected at 665/615 nM, the four-parameter analysis was performed, the dose-response curves were fit, and IC50 was calculated.

[3] = target: EGFR kinase (Homo sapiens (Human), UniProt P00533); experiment: Inhibitory activity on EGFR kinase; format: biochemical; conditions: ATP 5 μM
Chain of EGFR kinase (P00533 669-1210): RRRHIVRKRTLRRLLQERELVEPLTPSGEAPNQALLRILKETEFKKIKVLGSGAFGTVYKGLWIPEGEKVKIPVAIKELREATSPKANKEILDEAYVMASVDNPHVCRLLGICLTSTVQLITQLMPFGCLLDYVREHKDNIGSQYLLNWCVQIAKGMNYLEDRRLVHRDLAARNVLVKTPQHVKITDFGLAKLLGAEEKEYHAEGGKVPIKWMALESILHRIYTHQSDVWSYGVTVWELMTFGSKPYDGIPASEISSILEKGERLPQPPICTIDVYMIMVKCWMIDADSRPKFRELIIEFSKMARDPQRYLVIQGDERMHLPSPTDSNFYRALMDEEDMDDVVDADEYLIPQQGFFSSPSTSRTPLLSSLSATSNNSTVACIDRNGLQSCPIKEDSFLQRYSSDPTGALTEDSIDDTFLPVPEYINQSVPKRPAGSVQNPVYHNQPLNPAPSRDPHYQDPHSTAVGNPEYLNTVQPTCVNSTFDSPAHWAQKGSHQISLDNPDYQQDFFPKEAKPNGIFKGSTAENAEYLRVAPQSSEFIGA
Experimental: (§1) The Assay Buffer was prepared, and the composition of the Assay Buffer was 50 mM Hepes (Gibco, 15630), 10 mM MgCl2, 2 mM DTT, 1 mM EGTA, and 0.010% Tween 20. EGFR kinase (Carna, 08-115), ATP (Sigma, A7699), and ULight-poly GT (PE, TRF0100-M) working solutions were prepared using the Assay Buffer. EDTA and Eu-labeled anti-phosphotyrosine (PT66) antibody (PE, AD0069) working solutions were prepared using the Detection Buffer. 6 μL of EGFR kinase at the corresponding concentration (final concentration: 0.006 ng/μL) was added to the compound groups and the control group, while 6 μL of the Assay Buffer was added to the blank group, and then the compounds (with the concentration set to 1000 nM at the maximum, 4-fold dilution, 7 concentration gradients) were added using a nanoliter pipettor. The mixture was incubated at room temperature for 30 min, and then 4 μL of the mixture of ATP (final concentration: 5 μM) and ULight-poly GT (final concentration: 100 nM) was added. After incubation at room temperature for 2 h, 5 μL of EDTA (final concentration: 10 mM) was added to stop the reaction, and finally 5 μL of antibody (final concentration: 2 nM) was added. After incubation at room temperature for 1 h, signal values were detected at 665/615 nM, the four-parameter analysis was performed, the dose-response curves were fit, and IC50 was calculated.

[4] = target: BTK(C481S) kinase (Homo sapiens (Human), UniProt Q06187, C481S); experiment: Inhibitory activity on BTK(C481S) kinase; format: biochemical; conditions: ATP 10 μM
Chain of BTK(C481S) kinase (Q06187 whole entry C481S): as the sequence (Q06187 whole entry) above, with C481S counted along it
Experimental: as §1, with “20. BTK(C481S)” for “20. EGFR”, “kinase (Carna Biosciences, 08-547),” for “kinase (Carna, 08-115),”, “of BTK(C481S)” for “of EGFR”, “concentration: 0.005” for “concentration: 0.006”, “concentration: 10” for “concentration: 5”

[5] = system: TMD8-BTK(C481S) cells; experiment: Inhibitory activity on TMD8-BTK(C481S) cell proliferation (CCK-8); format: cell-based; conditions: 72 h, 72 h incubation
Outline: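 Cells seeded at 8×10^4 cells/mL, incubated overnight, then treated in duplicate with compounds at 5000 nM-0.31 nM for 72 h. Viability by CCK-8 (4 h, absorbance 450 nm); IC50 from four-parameter dose-response fits.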

[6] = In vitro liver microsomal stability, mouse; conditions: 0.5 mg/mL microsomes, NADPH, 37° C., 1 h
Experimental: Liver microsome incubation samples were prepared by mixing a PBS buffer (pH 7.4), a liver microsome solution (0.5 mg/mL), a test compound, and an NADPH+MgCl2 solution and incubated at 37° C. and 300 rpm for 1 h. Zero-hour samples were prepared by mixing a PBS buffer (pH 7.4), a liver microsome solution (0.5 mg/mL), and a test compound. An acetonitrile solution containing an internal standard was added to the samples, and supernatants were prepared by protein precipitation, diluted, and then assayed by LC/MS/MS.

Chain of BTK (Q06187 whole entry): as the sequence (Q06187 whole entry) above

| Dmax [1] [%] | IC50 [2] [nM] | IC50 [3] [nM] | IC50 [4] [nM] | Mouse liver microsome Residuals at 60 min [6] [%] | Structure (SMILES) | IC50 [5] [nM] |
| --- | --- | --- | --- | --- | --- | --- |
| > 90 | 0.42 | 69 | 0.81 | 63.1 | CN1CCN([C@@H]2CCCN(c3cnc(C(N)=O)c(Nc4ccc(C5CCC6(CC5)CCN(CC5Cc7ccc8c(C9CCC(=O)NC9=O)noc8c7C5)CC6)cc4)n3)C2)C1=O (stereo partly drawn) [Compound 50] | 4 |
| > 90 | 5.4 | 279 | 9.1 | 47.0 | CN1CCN([C@@H]2CCCN(c3cnc(C(N)=O)c(Nc4ccc(C5CCC6(CC5)CC(N5CCc7ccc8c(C9CCC(=O)NC9=O)noc8c7CC5)C6)cc4)n3)C2)C1=O (stereo partly drawn) [Compound 59] | 12 |

Source: patent US20250152719A1, “FUSED IMIDE DERIVATIVE” (Chia Tai Tianqing Pharmaceutical Group Co., Ltd., priority 2021, published 2025)
